Source: patent US12138346B2, “Physiologically active substance carrier” (LEMONEX INC., priority 2017, dated 2024)

Tests used:
Type in all cases: physicochemical
[1] = Release of doxorubicin from porous silica particles; details: loaded on porous silica particles of Example 1-(1); PBS, 37° C., 200 rpm
Description: 0.5 mg of porous silica particles loaded with doxorubicin (0.1 mg) was dispersed in PBS. This solution was maintained in a dynamic condition for horizontal agitation at 37° C. and 200 rpm. The doxorubicin-loaded porous silica solution was settled by a centrifugal separator at each time point, an absorbance of the supernatant (λab=480 nm) was measured to determine an amount of released doxorubicin, and results thereof are shown in FIG. 13.

[2] = Release of Cy5-siRNA from porous silica particles; details: Cy5-siRNA loaded on particles of Example 2-(1)-2)(ii); SBF (pH 7.4, 37° C.), 60 rpm
Description: 10 μl of the porous silica particles loaded with Cy5-siRNA was re-suspended in SBF (pH 7.4, 37° C.) and then put in a permeable membrane having a pore diameter of 20 kDa (tube in FIG. 18).
Thereafter, the permeable tube was dipped in 1.5 ml of SBF.
Before 24 hours, the released solvent was recovered at a time passing 0.5, 1, 2, 4, 8, 12 and 24 hours. Thereafter, 0.5 ml of released solvent was recovered at an interval of 24 hours for fluorescence measurement, followed by addition of SBF in equal amount.
Fluorescent intensity of Cy5-siRNA was measured at a wavelength of 670 nm (λex=647 nm) to determine a release degree of siRNA, and results thereof are shown in FIG. 19.

[3] = Release of irinotecan from porous silica particles in human plasma; details: loaded on negatively charged particles of Example 2-(3)-1), 37° C., 200 rpm
Description: 1 mg of porous silica particles loaded with irinotecan (0.2 mg) was dispersed in 1 mL of human plasma. This solution was maintained in a dynamic condition for horizontal agitation at 37° C. and 200 rpm. The irinotecan-loaded porous silica solution was settled by a centrifugal separator at each time point, an absorbance of the supernatant (λab=255 or 278 nm) was measured to determine an amount of released irinotecan, and results thereof are shown in FIG. 14.

[4] = Release of sorafenib from porous silica particles; details: loaded on particles of Example 1-(11)-5)(i) (hydrophobic substituent); 1×PBS, 37° C., 200 rpm
Description: 1 mg of porous silica particles loaded with sorafenib (0.1 mg) was dispersed in 10 mL of 1×PBS mL. This solution was maintained in a dynamic condition for horizontal agitation at 37° C. and 200 rpm. The sorafenib-loaded porous silica solution was settled by a centrifugal separator at each time point, an absorbance of the supernatant (λab=270 nm) was measured to determine an amount of released sorafenib, and results thereof are shown in FIG. 15.

[5] = Release of p53 peptides from porous silica particles; details: loaded on particles of Example 1-(11)-5)(i), 37° C., 20 rpm
Description: 5 mg of particles loaded with p53 peptides was put in 5 mL of 1×PBS containing 10% FBS or 5 mL of 1×PBS, and held in a dynamic environment while rotating at 37° C. and 20 rpm. The solution was centrifuged at 8500 rpm at each time point, and a fluorescent intensity of 5(6)-carboxy fluorescein (FAM) as a fluorescent label coupled to p53 peptide in the supernatant was measured ([…]: 480 nm, Emission: 520 nm).

[6] = Release of RNase A from porous silica particles; details: over 250 hours or more; SBF (pH 7.4) or PBS (pH 7.4), 37° C.; loaded on particles of Example 1-(9)
Description: 100 μg of the porous silica particles loaded with RNase A having fluorescence labeled therewith was re-suspended in 200 μl of SBF (pH 7.4) or PBS (pH 7.4).
Release of RNase A was performed at 37° C. while horizontally stirring at 60 rpm.
At a time point of 6, 12, 24, 48, 96, 144 and 240 hours, 200 μl of released solvent was recovered for fluorescence measurement, followed by addition of SBF or PBS in equal amount.

Molecule: COc1cccc2c1C(=O)c1c(O)c3c(c(O)c1C2=O)C[C@@](O)(C(=O)CO)C[C@@H]3O[C@H]1C[C@H](N)[C@H](O)[C@H](C)O1 [doxorubicin]
- release of doxorubicin (in words) [1]: relatively quickly released
- time over which doxorubicin was continuously released [1]: ≥ 70 h

Molecule: siRNA: 21 base pair duplex siRNA that targets green fluorescent protein (GFP), SEQ ID NO: 1 and 2; loaded on particles of Example 2-(1)-2)(ii) (sense GGCUACGUCCAGGAGCGCACC; antisense UGCGCUCCUGGACGUAGCCUU; Cy5 label, chemistry not fully specified)
- time over which 50% of siRNA was released [2]: about 48 hours

Molecule: CCc1c2c(nc3ccc(OC(=O)N4CCC(N5CCCCC5)CC4)cc13)-c1cc3c(c(=O)n1C2)COC(=O)[C@]3(O)CC [irinotecan]
- irinotecan released ([3]; after 5.5 hours): about 50%
- time over which irinotecan was continuously released [3]: ≥ 120 h

Molecule: CNC(=O)c1cc(Oc2ccc(NC(=O)Nc3ccc(Cl)c(C(F)(F)F)c3)cc2)ccn1 [sorafenib]
- release of sorafenib (in words) [4]: very slowly released

Molecule: Z-Gly-Gly-Qln-Ser-Qln-Qln-Thr-Phe-Y-Asn-Leu-Trp-Arg-Leu-Leu-X-Qln-Asn-NH2 (GGXSXXTFXNLWRLLXXN; not fully specified; FAM label; triazole staple; C-terminal amide; p53 peptide; SITE 3 1 - Xaa is Qln; 2 - Xaa is Qln; SITE 9 3 - Xaa is a non-natural amino acid introduced with an alkyne functional group wherein 4-pentynoic acid is introduced at a side chain of D-Lys; SITE 16 4 - Xaa is a non-natural amino acid introduced with an azide functional group and denotes 2-amino-5-azido-pentanoic acid; SITE 17 5 - Xaa is Qln) [FAM-labelled triazole-stapled peptide mimicking p53, antagonist of hMDM2]
- release of p53 peptide (in words) ([5]; 1×PBS containing 10% FBS): may be released outside the particle
- release of p53 peptide (in words) ([5]; 1×PBS): not released

B1: RNase A: RNase A (Sigma Aldrich, R6513), fluorescence labeled, loaded on particles of Example 1-(9) (protein, UniProt P61823 27-150, looked up)
Ribonuclease pancreatic: KETAAAKFERQHMDSSTSAASSSNYCNQMMKSRNLTKDRCKPVNTFVHESLADVQAVCSQKNVACKNGQTNCYQSYSTMSITDCRETGSSKYPNCAYKTTQANKHIIVACEGNPYVPVHFDASV
modifications: fluorescence labeled
- RNase A released [6]: ~100%
